Five compounds from US20230399287A1, “NOVEL COMPOUNDS” (Sitryx Therapeutics Limited, priority 2020, published 2023) can be followed below.

Data set [1] has as its system IL-1β. The experiment in a line: THP-1 AlphaLISA IL-1β cytokine assay. Format: cell-based. Particulars: Homo sapiens, THP-1, differentiated THP-1 cells, LPS 24 hr then Nigericin 1 hour. An outline of the steps:
(§1)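 THP-1 cells differentiated with PMA for 72 h, pre-incubated with compound for 30 min, primed with LPS for 24 h, then given nigericin for 1 h at 37 °C. IL-1β and IL-6 in supernatants were read by AlphaLISA. % inhibition was set against ±LPS controls and IC50 taken from concentration–response curves.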
(In general: In Alpha technology, singlet oxygen from a donor bead excites a nearby acceptor bead.)

In data set [2] the test system is IL-6. The experiment in a line: THP-1 AlphaLISA IL-6 cytokine assay. In kind it is cell-based. Particulars: Homo sapiens, THP-1, differentiated THP-1 cells, LPS 24 hr then Nigericin 1 hour. The procedure, abridged: as §1
Data set [3] relates to NRF2. The experiment in a line: NRF2 +/- GSH activation assay (DiscoverX PathHunter NRF2 translocation kit). In kind it is cell-based. As to conditions: for Emax: normalised to dimethyl fumarate high control; for pEC50: Homo sapiens, U2OS, U2OS PathHunter cells.
Data set [4] can be described thus: Hepatocyte stability assay (human). Format: in vitro ADME. Particulars: human, cryopreserved hepatocytes, 10 μM compound, 60 min, read-out: T½. The procedure, abridged: (§2)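 Cryopreserved human or mouse hepatocytes (0.5×10^6 cells/mL in Leibovitz buffer) were incubated with 10 μM compound (0.1% DMSO) at 37° C in duplicate, alongside a buffer-only control. Samples taken from 0 to 60 min were analysed by LC-MS/MS. Half-life and Clint (μL min^−1 10^−6 cells) came from the ln % remaining versus time slope.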

For data set [5], the system named is hepatocytes. The experiment in a line: Hepatocyte stability assay (human). Format: in vitro ADME. Particulars: 10 μM compound, 60 min. The procedure, abridged:
as §2

The nature of data set [6]: Hepatocyte stability assay (mouse). Particulars: mouse, cryopreserved hepatocytes, 10 μM compound, 60 min, read-out: T½. In kind it is in vitro ADME. An outline of the steps:
as §2

For data set [7], the system named is hepatocytes. The experiment in a line: Hepatocyte stability assay (mouse). In kind it is in vitro ADME. As to conditions: 10 μM compound, 60 min. An outline of the steps: as §2

pEC50, pIC50: −log10 of the molar value.

Take `C=C(CC(=O)OC1(c2ccc(C(F)(F)F)cc2)CSC1)C(=O)O` [Example 40, 2-methylene-4-oxo-4-((3-(4-(trifluoromethyl)phenyl)thietan-3-yl)oxy)butanoic acid]: the figures for the negative logarithm of the IC50 (pIC50) in data set [1] and in data set [2] were 6.10 and below 4.00, respectively. Besides, the maximal response (Emax) – broadly, the maximal effect, on the per cent scale that the assay sets – was 9% in data set [3] (+GSH) and 61% in data set [3] (−GSH). The pEC50 (in general, the EC50 on a negative log10 scale, so that one unit is a factor of ten) is below 4.00 in data set [3] (+GSH) and 5.77 in data set [3] (−GSH). In addition, the half-life at 10 μM came to 1.68 h in data set [4] and 1.48 h in data set [6]. The results for the Clint in data set [5] and in data set [7] were 12 μL min^−1 10^−6 cells and 25 μL min^−1 10^−6 cells, respectively.
For `C=C(CC(=O)OCc1ccc(C(F)(F)F)cc1)C(=O)O` [Example 13, 2-methylene-4-oxo-4-((4-(trifluoromethyl)benzyl)oxy)butanoic acid], the pIC50 – broadly, the negative decadic logarithm of the IC50, by convention in mol/L – is 5.23 in data set [1] and below 4.00 in data set [2]. Moreover, the maximal effect (Emax) was determined as 25% in data set [3] (+GSH) and 54% in data set [3] (−GSH). Also, the negative logarithm of the EC50 (pEC50) is below 4.00 in data set [3] (+GSH) and 4.41 in data set [3] (−GSH). Moreover, the half-life at 10 μM was above 7.67 h in data set [4] and 0.617 h in data set [6]. Besides, the Clint is recorded as below 3 μL min^−1 10^−6 cells in data set [5] and 42 μL min^−1 10^−6 cells in data set [7].
On to `C=C(CC(=O)OC1(c2ccc(C#CC(F)(F)F)cc2)CCC1)C(=O)O` [Example 36, 2-methylene-4-oxo-4-(1-(4-(3,3,3-trifluoroprop-1-yn-1-yl)phenyl)cyclobutoxy)butanoic acid], for which the negative logarithm of the IC50 (pIC50) in data set [1] was below 4.50; in data set [2] it was 5.25. Besides, the figures for the maximal response (Emax) in data set [3] (+GSH) and in data set [3] (−GSH) were 90% and 116%, respectively. The values for the negative logarithm of the EC50 (pEC50) in data set [3] (+GSH) and in data set [3] (−GSH) were 5.07 and 5.05, respectively. Besides, the half-life at 10 μM was 1.87 h in data set [4] and below 0.05 h in data set [6]. The Clint in data set [5] is listed as 12 μL min^−1 10^−6 cells; in data set [7], above 460 μL min^−1 10^−6 cells.
On to `C=C(CC(=O)OC1(c2ccc(C(F)(F)F)cc2)CCCC1)C(=O)O` [Example 7, 2-methylene-4-oxo-4-((1-(4-(trifluoromethyl)phenyl)cyclopentyl)oxy)butanoic acid], for which the pIC50 in data set [1] was 5.43; in data set [2], below 4.00. Moreover, the Emax was 0% in data set [3] (+GSH) and 6% in data set [3] (−GSH). The pEC50 in data set [3] (+GSH) and in data set [3] (−GSH) was below 4.00 throughout. For the same compound, the values for the half-life at 10 μM in data set [4] and in data set [6] were 1.1 h and 1.97 h, respectively. Moreover, the results for the Clint in data set [5] and in data set [7] were 20 μL min^−1 10^−6 cells and 14 μL min^−1 10^−6 cells, respectively.
As for `C=C(CC(=O)OC1(c2ccc(C(F)(F)F)c(Cl)c2)CCC1)C(=O)O` [Example 12, 4-(1-(3-chloro-4-(trifluoromethyl)phenyl)cyclobutoxy)-2-methylene-4-oxobutanoic acid], the pIC50 in data set [1] was 5.35; in data set [2] it was 4.08. The values for the Emax in data set [3] (+GSH) and in data set [3] (−GSH) were 46% and 66%, respectively. Besides, the pEC50 in data set [3] (+GSH) is below 4.00; in data set [3] (−GSH) it was 4.09. The values for the half-life at 10 μM in data set [4] and in data set [6] were 0.617 h and 0.75 h, respectively. Moreover, the Clint in data set [5] is 46 μL min^−1 10^−6 cells; in data set [7], 42 μL min^−1 10^−6 cells.
